Drawing on PubChem BioAssay (NCI), this text covers TGI for seven molecules.

Test systems include BT-549 breast; COLO 205 colon; A498 renal; ACHN renal; UO-31 renal; MDA-MB-435; UACC-62 melanoma; NCI-H522 lung; A549 NSCLC; MALME-3M melanoma; HCT-15 colon; LOX IMVI melanoma; OVCAR-8 ovarian; SF-295 CNS; OVCAR-3 ovarian; CCRF-CEM leukemia; NCI/ADR-RES ovarian; NCI-H226 lung; SNB-75 CNS; 786-0 renal.
Test in all cases: NCI-60 cell line screen, 48 h

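Tested at 5 concentrations; 48 h exposure; 96-well plates; endpoints linearly interpolated, else capped at highest concentration. TGI marks complete inhibition of growth.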 Some results are limits rather than exact numbers.

`Nc1nc2c(c(=O)[nH]1)NC(CCNc1ccc(C(=O)O)cc1)CN2` (centres undefined): the TGI with BT-549 breast, in the experiment with COLO 205 colon, in the experiment with A498 renal, with ACHN renal, in the experiment with UO-31 renal and in the experiment on MDA-MB-435 was above 100 µM each time. Also, the TGI with UACC-62 melanoma, in the experiment on NCI-H522 lung, in the experiment with A549 NSCLC, in the experiment with MALME-3M melanoma, with HCT-15 colon and with LOX IMVI melanoma was above 100 µM in each case. In addition, the TGI with OVCAR-8 ovarian, in the experiment with SF-295 CNS, with OVCAR-3 ovarian, in the experiment with CCRF-CEM leukemia, with NCI/ADR-RES ovarian and in the experiment with NCI-H226 lung was above 100 µM in each case. Moreover, the TGI with SNB-75 CNS and with 786-0 renal was above 100 µM each time.
On to `Cc1ccc(C=C(C(=O)O)C(=O)O)o1`, for which the TGI in the experiment on BT-549 breast, in the experiment on COLO 205 colon, in the experiment with A498 renal, in the experiment with ACHN renal, in the experiment on UO-31 renal and in the experiment on MDA-MB-435 was above 100 µM each time. For the same molecule, the TGI with UACC-62 melanoma, in the experiment with NCI-H522 lung, in the experiment with A549 NSCLC, in the experiment on MALME-3M melanoma, in the experiment on HCT-15 colon and in the experiment with LOX IMVI melanoma was above 100 µM each time. Further, the TGI in the experiment with OVCAR-8 ovarian, with SF-295 CNS, in the experiment on OVCAR-3 ovarian, in the experiment with CCRF-CEM leukemia, with NCI/ADR-RES ovarian and in the experiment on NCI-H226 lung was above 100 µM throughout. The TGI in the experiment on SNB-75 CNS and in the experiment with 786-0 renal was above 100 µM in each case.
On to `O=c1c2ccccc2n2cnc3ccc(NCCNCCO)c1c32`, for which the TGI in the experiment on BT-549 breast was determined as 16.6 µM; in the experiment on COLO 205 colon it was 5.09 µM; with A498 renal it was 6.96 µM; in the experiment on ACHN renal it was 7.42 µM; with UO-31 renal, 11.6 µM; with MDA-MB-435, 6.68 µM. Besides, the TGI in the experiment on UACC-62 melanoma was 7.27 µM; with NCI-H522 lung, 6.2 µM; in the experiment on A549 NSCLC it was 3.66 µM; with MALME-3M melanoma, 9.3 µM; in the experiment on HCT-15 colon it was 13.7 µM; with LOX IMVI melanoma, 2.8 µM. The TGI in the experiment with OVCAR-8 ovarian was 5.02 µM; in the experiment with SF-295 CNS, 9.2 µM; in the experiment on OVCAR-3 ovarian, 9.82 µM; with CCRF-CEM leukemia, above 47.3 µM; with NCI/ADR-RES ovarian, 16.5 µM; in the experiment with NCI-H226 lung it was 6.5 µM. For the same molecule, the TGI in the experiment on SNB-75 CNS came to 9.51 µM; in the experiment with 786-0 renal, 10.4 µM.
For `O=C(O)Cc1ccc(Oc2nc3ccccc3nc2-c2ccccc2)cc1`, the TGI in the experiment with BT-549 breast, with COLO 205 colon, with A498 renal, in the experiment on ACHN renal, in the experiment with UO-31 renal and in the experiment with MDA-MB-435 was above 100 µM each time. Moreover, the TGI in the experiment on UACC-62 melanoma was 75.7 µM; in the experiment with NCI-H522 lung, above 100 µM; in the experiment with A549 NSCLC it was above 100 µM; in the experiment with MALME-3M melanoma, above 100 µM; in the experiment with HCT-15 colon it was above 100 µM; with LOX IMVI melanoma, above 100 µM. Moreover, the TGI is above 100 µM in the experiment on OVCAR-8 ovarian; above 100 µM with SF-295 CNS; 65.6 µM in the experiment on OVCAR-3 ovarian; above 100 µM with CCRF-CEM leukemia; above 100 µM in the experiment on NCI/ADR-RES ovarian; above 100 µM in the experiment on NCI-H226 lung. Further, the TGI in the experiment on SNB-75 CNS and with 786-0 renal was above 100 µM throughout.
Regarding `COc1cccc(/C=C2/S/C(=N/Nc3nc(C)c(C(C)=O)s3)NC2=O)c1O`, the TGI was 97 µM in the experiment with BT-549 breast; 64.9 µM with COLO 205 colon; above 100 µM with A498 renal; 51.6 µM in the experiment on ACHN renal; 51.3 µM in the experiment with UO-31 renal; above 100 µM in the experiment with MDA-MB-435. Besides, the TGI is 43.9 µM in the experiment with UACC-62 melanoma; 33.2 µM in the experiment with NCI-H522 lung; above 100 µM in the experiment on A549 NSCLC; 88.2 µM with MALME-3M melanoma; above 100 µM in the experiment on HCT-15 colon; above 100 µM in the experiment on LOX IMVI melanoma. Also, the TGI with OVCAR-8 ovarian is above 100 µM; in the experiment on SF-295 CNS it was above 100 µM; in the experiment on OVCAR-3 ovarian it was 60.3 µM; in the experiment on CCRF-CEM leukemia, 50.7 µM; with NCI/ADR-RES ovarian, above 100 µM; with NCI-H226 lung it was above 100 µM. Moreover, the TGI in the experiment with SNB-75 CNS and in the experiment with 786-0 renal was above 100 µM each time.
Regarding `CC(C)=NNc1ncnc2nc[nH]c12`, the TGI was above 100 µM with BT-549 breast; 59.5 µM with COLO 205 colon; 54.2 µM in the experiment on A498 renal; above 100 µM in the experiment on ACHN renal; above 87.9 µM in the experiment with UO-31 renal; above 100 µM in the experiment on MDA-MB-435. Moreover, the TGI was 20 µM in the experiment on UACC-62 melanoma; 32.2 µM in the experiment on NCI-H522 lung; above 72.4 µM in the experiment on A549 NSCLC; above 100 µM in the experiment on MALME-3M melanoma; above 100 µM with HCT-15 colon; above 100 µM with LOX IMVI melanoma. Besides, the TGI in the experiment on OVCAR-8 ovarian was above 100 µM; in the experiment on SF-295 CNS it was above 100 µM; with OVCAR-3 ovarian, 40.1 µM; in the experiment with CCRF-CEM leukemia it was above 100 µM; in the experiment with NCI/ADR-RES ovarian, above 100 µM; in the experiment with NCI-H226 lung, 97 µM. For the same molecule, the figures for the TGI in the experiment with SNB-75 CNS and in the experiment on 786-0 renal were above 79.6 µM and above 100 µM, respectively.
For `CC(=O)O[C@H]1C[C@H]2[C@@H]([C@H](OC(C)=O)C[C@@H]3CC4(CC[C@@]32C)OOC2(CCCCC2)OO4)[C@@H]2CC[C@H]([C@H](C)CCC(=O)O)[C@@]12C`, the TGI in the experiment with BT-549 breast was found to be 17.3 µM; in the experiment with COLO 205 colon, 14 µM; with A498 renal it was 27.1 µM; in the experiment with ACHN renal, 20.3 µM; with UO-31 renal it was 11 µM; in the experiment on MDA-MB-435 it was 18.9 µM. In addition, the TGI was 9.36 µM in the experiment with NCI-H522 lung; 12.8 µM with A549 NSCLC; 34.3 µM in the experiment with MALME-3M melanoma; 17 µM in the experiment with HCT-15 colon; 15.8 µM in the experiment on LOX IMVI melanoma; 16.1 µM in the experiment on OVCAR-8 ovarian. Further, the TGI was 19.1 µM in the experiment on SF-295 CNS; 37.2 µM with OVCAR-3 ovarian; 15.5 µM in the experiment on CCRF-CEM leukemia; 19 µM with NCI/ADR-RES ovarian; 31.6 µM in the experiment with NCI-H226 lung; 14.8 µM with SNB-75 CNS. Also, the TGI with 786-0 renal was 24 µM.
